{"source": "patent US20230255202A1", "about": "“ANTIMICROBIAL COMPOSITION” (The Procter & Gamble Company, priority 2022, published 2023)", "key": {"Gram Negative": {"test_system": "Gram Negative", "test": "Surface Antimicrobial Kill Testing Method, activity normalized to triclosan internal standard", "format": "cell-based", "details": "for Referenced Microbial Activity: Table 15; for Referenced Microbial Activity / Negative Referenced Microbial Activity / Gram Negative Referenced Microbial Activity: 0.5 wt % compound; for Referenced Microbial Activity / Negative Referenced Microbial Activity: 0.1M Acetic acid buffer pH 4.5; for Negative Referenced Microbial Activity: Table 16; for antimicrobial benefit (in words): Table 16 nonionic formulation: DEGBE, EcoSurf EH9; for Gram Negative Referenced Microbial Activity: 5 wt % DPGME; for antimicrobial efficacy (in words): Table 17", "description": "Inoculum is prepared by streaking microorganism onto a Tryptic Soy Agar (TSA) plate and incubating for 24 h at 33° C. Plated bacteria is resuspended in saline until the transmittance percentage falls within the accepted range for ˜10^8 cfu/mL. For K. pneumonia (Kp) and P. aeruginosa (Pa), this is 31.00-33.00% T. For S. aureus (Sa) this is 23.00-25.00% T. A 10× concentration is made by spinning down the prepared inoculum, removing the supernatant saline from the bacterial pellet, then resuspending the pellet in 1/10 of the original volume of saline. The final inoculum is prepared with 5% of “soil” in the form of Fetal Bovine Serum (FBS).\nA 18×18 mm sterile glass coverslip is placed into an appropriate container (e.g. petri dish). 20 μL of prepared inoculum is added to the glass coverslip. Inoculum is then air-dried for 30 minutes in a 36° C. incubator. After drying, 40 μL of test sample is added on top of the dried inoculum. This is incubated at room temperature for the desired contact time. 5 mL of neutralizing media (Modified Letheen Broth+Tween+Lecithin (MLBTL)) is added to the coverslip and shaken on an orbital shaker for 5 minutes to ensure proper neutralization and extraction. Viability is then assessed of the neutralized and extracted sample by traditional/alternative microbiological techniques.\nThe normalized antimicrobial activity reported in the performance examples below was generated from detection time data obtained as described in the Surface Antimicrobial Kill Test Method. To account for day-to-day variability an internal standard was tested with each series. The internal standard was a composition of 0.25 wt % Triclosan, Sigma Aldrich (St. Louis, Mo., USA; CAS #3380-34-5, 97.0-103.0% (active substance, GC)), 50 wt % DMSO, and 49.75 wt % H2O, with a final solution pH of 7.7. Normalized activity is reported following the equation 1 below.\nNormalized Activity=(αΔDT−βΔDT)/(γΔDT−βΔDT) equation 1.\nwhere, αΔDT is the average detection time of the antimicrobial compound, and γΔDT is the average detection time of the reference triclosan internal standard, and βΔDT is the average detection time of the background unperturbed bacteria.\nModified amino acids of the present disclosure were tested as aqueous solutions in the Surface Antimicrobial Kill Testing Method above. To prepare test solutions modified amino acids were first dissolved in the appropriate solvent. Second the selected surfactant is added to the mixture. After vortex (1 min, Vortex-2 Genie, vortex speed 8) mixing, the samples were then diluted with […] of reverse osmosis water (RO water, Millipore Direct-Q™, pH 6). The aqueous solution was then vortexed (1 min, Vortex-2 Genie, vortex speed 8), to which the second ½ portion of water is added. The pH of the solution was then adjusted to the target pH using either 1N HCl, Glacial Acetic Acid, or 1N NaOH. The final solution was then vortexed (1 min, Vortex-2 Genie, vortex speed 8). An example batch sheet is provided below in Table 1.\nIn Performance Examples 1-4 below, formulations comprising solvent, surfactant, and antimicrobial agents according to the present disclosure (e.g., based on modified amino acid esters), are evaluated via microbial surface kill tests according to the Surface Antimicrobial Kill Testing Method provided above. After treatment, microbial growth is referenced and reported to a triclosan sample and unaltered microbes according to the Normalization of Antimicrobial Activity provided above."}, "[1]": {"test": "Stability of the isolated modified amino acid ester by 1H NMR", "format": "physicochemical", "details": "isolated solid or fluid"}, "[2]": {"details": "DEGBE (5 wt %), EcoSurf EH9 1 wt %"}}, "data": [{"molecule": "CCOC(=O)C(N)C(C)C", "note": "(stereo not shown) [Comparative Example C1, reference compound]", "values": [{"measurement": "Referenced Microbial Activity", "setting": "Gram Negative; [2]", "value": 0.5}]}, {"molecule": "CCCCCCCCCCCCOC(=O)[C@@H](N)Cc1ccccc1", "note": "[Synthetic Example 10]", "values": [{"measurement": "stability by 1H NMR", "setting": "[1]", "value": "stable for several months"}, {"measurement": "Negative Referenced Microbial Activity", "setting": "Gram Negative; [2]", "value": 0.1}, {"measurement": "antimicrobial benefit (in words)", "setting": "Gram Negative", "value": "little surface activity"}]}, {"molecule": "N[C@@H](Cc1ccccc1)C(=O)OCc1ccccc1", "note": "[Synthetic Example 8]", "values": [{"measurement": "stability by 1H NMR", "setting": "[1]", "value": "stable for several months"}, {"measurement": "Negative Referenced Microbial Activity", "setting": "Gram Negative; [2]", "value": 4.6}]}, {"molecule": "CCCCCCOC(=O)[C@@H](N)C(C)C", "note": "[Synthetic Example 3]", "values": [{"measurement": "stability by 1H NMR", "setting": "[1]", "value": "stable for several months"}, {"measurement": "Referenced Microbial Activity", "setting": "Gram Negative; [2]", "value": 2.8}]}, {"molecule": "CCOC(=O)[C@@H](N)Cc1ccccc1", "note": "[Comparative Example C2, phenylalanine ethyl ester, reference compound]", "values": [{"measurement": "Negative Referenced Microbial Activity", "setting": "Gram Negative; [2]", "value": 0.4}, {"measurement": "antimicrobial benefit (in words)", "setting": "Gram Negative", "value": "little antimicrobial benefit"}]}, {"molecule": "CCCCCCCCOC(=O)[C@@H](N)C(C)C", "note": "[Synthetic Example 4]", "values": [{"measurement": "stability by 1H NMR", "setting": "[1]", "value": "stable for several months"}, {"measurement": "Gram Negative Referenced Microbial Activity", "setting": "Gram Negative; CTAC 1 wt %, pH 4.5", "value": 3.5}, {"measurement": "Gram Negative Referenced Microbial Activity", "setting": "Gram Negative; Ecosurf EH6 1 wt %, pH 4.5", "value": 3.5}, {"measurement": "Gram Negative Referenced Microbial Activity", "setting": "Gram Negative; Ecosurf EH6 1 wt %, pH 8.5", "value": 0.7}, {"measurement": "Gram Negative Referenced Microbial Activity", "setting": "Gram Negative; Miranol Ultra 32 1 wt %, pH 4.5", "value": 3.5}, {"measurement": "Gram Negative Referenced Microbial Activity", "setting": "Gram Negative; Plantaren 2000 1 wt %, pH 4.5", "value": 3.5}, {"measurement": "Gram Negative Referenced Microbial Activity", "setting": "Gram Negative; SLS (29%) 1 wt %, pH 4.5", "value": 0.4}, {"measurement": "Gram Negative Referenced Microbial Activity", "setting": "Gram Negative; SLS (29%) 1 wt %, pH 8.5", "value": 0.1}, {"measurement": "Gram Negative Referenced Microbial Activity", "setting": "Gram Negative; Surfonic L 24-9 1 wt %, pH 2", "value": 2.5}, {"measurement": "Gram Negative Referenced Microbial Activity", "setting": "Gram Negative; Surfonic L 24-9 1 wt %, pH 4.5", "value": 3.5}, {"measurement": "Gram Negative Referenced Microbial Activity", "setting": "Gram Negative; Surfonic L24-9 1 wt %, pH 7", "value": 3.5}, {"measurement": "Gram Negative Referenced Microbial Activity", "setting": "Gram Negative; Surfonic L24-9 1 wt %, pH 8.5", "value": 0.2}, {"measurement": "Gram Negative Referenced Microbial Activity", "setting": "Gram Negative; Tween 80 1 wt %, pH 4.5", "value": 3.5}, {"measurement": "Gram Negative Referenced Microbial Activity", "setting": "Gram Negative; no surfactant, pH 4.5, solution heated to 50 C. prior to testing", "value": 1.6}, {"measurement": "Referenced Microbial Activity", "setting": "Gram Negative; DEGBE (5 wt %), EcoSurf EH6 1 wt %", "value": 3.7}, {"measurement": "Referenced Microbial Activity", "setting": "Gram Negative; [2]", "value": 1.6}, {"measurement": "antimicrobial activity (in words)", "setting": "Gram Negative; Table 15 experiment, modified valine amino acids", "value": "highest activity"}, {"measurement": "antimicrobial efficacy (in words)", "setting": "Gram Negative; from pH 2 to about pH 7", "value": "improved antimicrobial efficacy"}, {"measurement": "antimicrobial efficacy (in words)", "setting": "Gram Negative; pH range greater than 7", "value": "did not provide a benefit"}]}, {"molecule": "CCCCCCCCCCCCCCCCCCOC(=O)[C@@H](N)C(C)C", "note": "[Synthetic Example 7]", "values": [{"measurement": "stability by 1H NMR", "setting": "[1]", "value": "stable for several months"}, {"measurement": "Referenced Microbial Activity", "setting": "Gram Negative; [2]", "value": 0.9}, {"measurement": "Referenced Microbial Activity", "setting": "Gram Negative; DMSO (50 wt %), EcoSurf EH6 1 wt %", "value": 0.6}]}, {"molecule": "CCCCCCCCCCCCCCCCOC(=O)[C@@H](N)C(C)C", "note": "[Synthetic Example 6]", "values": [{"measurement": "stability by 1H NMR", "setting": "[1]", "value": "stable for several months"}, {"measurement": "Referenced Microbial Activity", "setting": "Gram Negative; [2]", "value": 0.6}]}]}
